Test system: NS1
Experiment: NS1 antigenemia (Platelia NS1 assay) in adult dengue patients, randomized placebo-controlled trial
Type: in vivo, human
Details: Kaplan-Meier estimate
Protocol: Randomization to treatment group was by computer-generated randomization sequencing in blocks of 2. Balapiravir was formulated in a 500-mg film-coated tablet. The placebo consisted of an identical looking tablet containing excipient only. All balapiravir and placebo tablets were provided by F. Hoffmann-La Roche. Patients in cohort 1 (n = 20) received 1500 mg of balapiravir or an identical placebo orally every 12 hours for 5 days (10 doses). The decision to dose escalate (to 3000 mg) was made after review of the partially unblinded group mean clinical and laboratory data acquired from patients in cohort 1. Patients in cohort 2 (n = 44) received 3000 mg of balapiravir or placebo orally twice a day for 5 days (10 doses).

In the case of CC(C)C(=O)OC[C@@]1(N=[N+]=[N-])O[C@@H](n2ccc(N)nc2=O)[C@H](OC(=O)C(C)C)[C@@H]1OC(=O)C(C)C [Balapiravir], the “Median time to first negative NS1 test result (IQR)” value (High-dose (3000 mg twice a day, 5 days), n = 22) is reported as 4 (3–6) d and the “Median time to first negative NS1 test result (IQR)” value (Low-dose (1500 mg twice a day, 5 days), n = 10) is reported as 3 (3–14) d.

Reference: article PMC3610419, “A Randomized, Double-Blind Placebo Controlled Trial of Balapiravir, a Polymerase Inhibitor, in Adult Dengue Patients” (The Journal of Infectious Diseases, 2012)
